From patent US9283209B2, “Oral formulations of deferasirox” (NOVARTIS AG, priority 2013, dated 2016)
In brackets after ≈: the same amount, converted by molar mass. Where two headings read alike, the source gives them in different places.

Legend:
[1] = Exjade (deferasirox) solubility profile at 37 C; type: physicochemical
From the text: Due to the poor solubility of Exjade™ (deferasirox), a high dose is required to achieve the desired therapeutic effect, which results in unwanted side effects, such as gastrointestinal (GI) irritation and kidney toxicity. […] To meet the high dose requirement and reduce pill burden Exjade™ (deferasirox) was developed as dispersible tablets with about 29.4% drug load. The disadvantage of this type of formulation is that the tablets have to be dispersed in water or appropriate liquid, such as in orange juice or apple juice and stirred until a fine suspension is obtained prior to administration. Further, the dispersible tablets have to be taken at least 30 minutes before food.

[2] = Study 2209: one year study in NTDT patients, GI adverse event rates; type: in vivo, human; conditions: 10 mg/kg
From the text: The new Exjade formulations represent a significant improvement in patient care and support compliance with chelation therapy because of the improved pharmaceutical properties and because of the changes in composition. […] Exjade currently also contains lactose and so is not recommended in patients with rare hereditary problems of galactose intolerance, the Lapp lactase deficiency, glucose-galactose malabsorption or severe lactase deficiency. Novartis believes the exclusion of lactose and sodium lauryl sulfate in the new formulations will improve the gastrointestinal tolerability of the product.

[3] = Patient study A0105F: Exjade after high-fat breakfast; type: in vivo, human; conditions: patients
Description: (§1) Therefore, patients would only be exposed to the highest approved dose (40 mg/kg/day for the current formulation) after an extended period of up-titration with confirmed tolerability • the absence of a significant food effect results in a lower risk of increased exposure when the drug is taken with a meal.

[4] = Thorough QT healthy volunteer study; type: in vivo, human; conditions: human, in vivo, oral, 40 mg/kg, 40 mg/kg immediately after a high-fat breakfast, 44 healthy volunteers
Description: as §1
(§2) Deferasirox Cmax values in healthy volunteers are generally higher than in patients. Two healthy volunteer studies in the initial registration package in 2005 were therefore reviewed for potential Cmax-related adverse events.

QT interval = assay: Thorough QT healthy volunteer study; type: in vivo, human
Description: as §1, §2

[5] = Randomized crossover bioequivalence study, Exjade dispersed in fruit juice or water; type: in vivo, human; conditions: single 20 mg/kg dose, 28 healthy volunteers, 2.5 to 5 hours after intake
From the text: as §2

[6] = test system: serum creatinine, creatinine clearance; conditions: human, in vivo
Description: In addition, a new analysis of creatinine and creatinine clearance changes was performed to explore whether deferasirox-associated renal changes are a function of peak exposure (Cmax) or of overall exposure (AUC). The analysis used data from the large multicenter study 7, in which Ctrough (a proxy of AUC) and deferasirox C2h (a proxy of Cmax) was collected at multiple time points.
Based on study 7 data, the relationship between PK parameters at steady state (Ctrough and C2h) and serum creatinine was investigated by using a linear mixed model of log-transformed creatinine values (1990 observations at week 12 and 28) with patient included in model as a random effect. After log-transformation, baseline creatinine levels, C2h and Ctrough were included as predictors in the model.

[7] = 40 mg/kg after high-fat breakfast, 44 volunteers

## O=C(O)c1ccc(-n2nc(-c3ccccc3O)nc2-c2ccccc2O)cc1 [deferasirox]
[1]; aqueous buffer, pH 3, 37 C
  solubility: < 0.01 mg/mL
[1]; aqueous buffer, pH 4, 37 C
  solubility: < 0.01 mg/mL
[1]; aqueous buffer, pH 5, 37 C
  solubility: < 0.01 mg/mL
[1]; aqueous buffer, pH 7.5, 37 C
  solubility: 0.167 mg/mL (≈ 447 µM)
[1]; simulated gastric fluid, pH 1, 37 C
  solubility: < 0.01 mg/mL
[1]; simulated gastric fluid, pH 2, 37 C
  solubility: < 0.01 mg/mL
[1]; water, 37 C
  solubility: 0.02 mg/mL (≈ 53.6 µM)
[2]
  GI adverse event rate: 36.4%
[3]
  Change in exposure after a high-fat breakfast: nearly doubled
[4]; read-out: Cmax (average)
  Cmax: 256 µM
[4]; read-out: Cmax (range)
  Cmax: 134 to 472 µM
QT interval; [7]
  GI symptoms (diarrhea/loose stools, flatulence, and nausea): 18%
  Headache and dizziness, one patient each: 2%
QT interval; healthy volunteers, doses up to 40 mg/kg
  Effect on the QT interval: no effect
[5]
  HV subjects reporting loose stools: three
[6]
  Estimate, Log (C2h): 0.03287
  Estimate, Log (Ctrough): 0.06504
  Estimate, Log (baseline creatinine): 0.9593
  Estimate, Log(C2h): −0.00203
  Estimate, Log(Ctrough): 0.9346
  Estimate, Log(baseline creatinine clearance): −10.3474
  OR for a 2-fold increase in PK parameter, Log(C2h): 0.999
  OR for a 2-fold increase in PK parameter, Log(Ctrough): 1.911
  OR for a 30% increase in PK parameter, Log(Ctrough): 1.278
  Slope of linear regression between Day 1 C2h and percent change in serum creatinine at week 4: 0.03 (−0.01, 0.08)
